Reference: ChEMBL document CHEMBL6103565, “Current strategies in design and synthesis of antifungals hybrid and chimeric diazine derivatives” (Bioorg Med Chem, 2025)
Converted amounts (≈) assume the structure as drawn. Each block holds one compound with its values, some of them ahead of it.

Tests used:
Candida albicans [1] = assay: Antimicrobial activity against Candida albicans ATCC 64124 assessed as reduction in microbial growth by CLSI protocol based micro-broth dilution method; assay type: functional
[2] = system: Syncephalastrum racemosum; assay: Antifungal activity against Syncephalastrum racemosum assessed as zone of inhibition; assay type: functional
Candida albicans [3] = assay: Antifungal activity against Candida albicans assessed as zone of inhibition by serial dilution and disc diffusion method; assay type: functional
Saccharomyces cerevisiae = assay: Antimicrobial activity against Saccharomyces cerevisiae assessed as zone of inhibition; assay type: functional
Aspergillus fumigatus = assay: Antifungal activity against Aspergillus fumigatus assessed as zone of inhibition; assay type: functional
Candida albicans [4] = assay: Antifungal activity against Candida albicans MTCC 227 by disc diffusion method; assay type: functional, organism-based
Aspergillus niger = assay: Antifungal activity against Aspergillus niger MTCC 282 by disc diffusion method; assay type: functional, organism-based
Cryptococcus neoformans = assay: Antifungal activity against Cryptococcus neoformans assessed as reduction in fungal growth incubated for 24 hrs by broth microdilution method; assay type: functional
Trichophyton rubrum = assay: Antifungal activity against Trichophyton rubrum assessed as diameter of zone inhibition; assay type: functional
Candida albicans [5] = assay: Antifungal activity against Candida albicans ATCC 10231; assay type: functional
Pichia kudriavzevii = assay: Antifungal activity against Candida krusei ATCC 6258; assay type: functional
Candida parapsilosis = assay: Antifungal activity against Candida parapsilosis ATCC 22019; assay type: functional; conditions: Lodderomyces parapsilosis
Nakaseomyces glabratus = assay: Antifungal activity against Candida glabrata ATCC 90030; assay type: functional
Botrytis cinerea = assay: Antifungal activity against Botrytis cinerea assessed as reduction in fungal growth at 50 ug/ml relative to control; assay type: functional
Candida albicans [6] = assay: Antifungal activity against Candida albicans assessed as reduction in fungal growth incubated for 48 hrs by broth micro-dilution method; assay type: functional
Aspergillus flavus = assay: Antimicrobial activity against Aspergillus flavus assessed as zone of inhibition; assay type: functional
Candida albicans [7] = assay: Antifungal activity against Candida albicans assessed as diameter of zone inhibition; assay type: functional
Botryosphaeria dothidea = assay: Antifungal activity against Botryosphaeria dothidea assessed as reduction in fungal growth at 50 ug/ml relative to control; assay type: functional
Candida albicans [8] = assay: Antifungal activity against Candida albicans NRRL-Y477 assessed as zone of inhibition by disc diffusion method; assay type: functional

MIC (Candida albicans [1]): 4 µg/mL
SMILES: Cc1nc(-c2ccc(C(C)(C)C)cc2)sc1-c1ccnc(N[C@H]2CCCCC2CN)n1 (some centres not stated)

SMILES: CCc1nnc2c(Nc3ccc(C(=O)/C=C/c4ccc(C)cc4)cc3)nc3ccccc3n12
inhibition zone (IZ) [2]: 20 mm

SMILES: COc1ccc(OC)c(/C=N/Nc2ncnc3[nH]ccc23)c1
inhibition zone (IZ) (Candida albicans [3]): 30 mm
inhibition zone (IZ) (Saccharomyces cerevisiae): 24 mm

SMILES: CCc1nnc2c(Nc3ccc(C4=NN(c5ccccc5)C(c5ccc(Cl)cc5)C4)cc3)nc3ccccc3n12 (configuration not stated)
inhibition zone (IZ) (Aspergillus fumigatus): 21 mm

EC50 (Candida albicans [4]): 0.16 µg/mL (≈ 0.364 µM)
EC50 (Aspergillus niger): 0.16 µg/mL (≈ 0.364 µM)
SMILES: CC(=O)N1N=C(C2=C(C)NC(=O)NC2c2ccc(F)cc2)OC1c1cccc([N+](=O)[O-])c1 (configuration not stated)

MIC (Cryptococcus neoformans): 12.5 µg/mL (≈ 23 µM)
SMILES: Cc1nc(NC(=O)c2cc(C(F)(F)F)cc(C(F)(F)F)c2)c2c(C(F)(F)F)cc(-c3ccccc3)nc2n1

SMILES: CN(C)c1ccc(-c2cc(Br)c(O)nn2)cc1
inhibition zone (IZ) (Trichophyton rubrum): 15 mm

SMILES: CCc1nnc2c(Nc3ccc(Br)cc3)nc3ccccc3n12
inhibition zone (IZ) [2]: 20 mm

MIC50 (Candida albicans [5]): 0.78 µg/mL (≈ 2.73 µM)
MIC (Pichia kudriavzevii): 0.78 µg/mL (≈ 2.73 µM)
MIC (Candida parapsilosis): 0.78 µg/mL (≈ 2.73 µM)
MIC (Nakaseomyces glabratus): 0.78 µg/mL (≈ 2.73 µM)
SMILES: COc1nc2ccccc2nc1N1CC(C(=O)O)=CC1=O

MIC50 (Candida albicans [5]): 0.78 µg/mL (≈ 2.9 µM)
MIC (Pichia kudriavzevii): 0.78 µg/mL (≈ 2.9 µM)
MIC (Candida parapsilosis): 0.78 µg/mL (≈ 2.9 µM)
MIC (Nakaseomyces glabratus): 0.78 µg/mL (≈ 2.9 µM)
SMILES: Cc1nc2ccccc2nc1N1CC(C(=O)O)=CC1=O

SMILES: CCc1nnc2c(Nc3ccc(C4=NN(c5ccccc5)C(c5ccc(OC)cc5)C4)cc3)nc3ccccc3n12 (configuration not stated)
inhibition zone (IZ) [2]: 21 mm

SMILES: Oc1nnc(-c2ccc(Cl)cc2)cc1Br
inhibition zone (IZ) (Trichophyton rubrum): 14 mm

SMILES: Cc1nc(Oc2ccc(C(=O)Nc3ccc(Br)c(Cl)c3)cc2)cc(C(F)(F)F)n1
inhibition at 50 µg/mL (Botrytis cinerea): 83.8%

MIC (Candida albicans [6]): 6.25 µg/mL (≈ 13.7 µM)
SMILES: Cc1ccc(S(=O)(=O)Nc2nc(/N=N/c3c(N)nn4c(N)c(C#N)nnc34)cs2)cc1

SMILES: O=C1CNC(c2ccc(Cl)cc2)N1c1nc(-c2ccc(Cl)cc2)cc(-c2ccccn2)n1 (configuration not stated)
inhibition zone (IZ) (Aspergillus flavus): 10 mm

SMILES: COc1ccc(/C=N/Nc2ncnc3[nH]ccc23)cc1
inhibition zone (IZ) (Candida albicans [3]): 30 mm
inhibition zone (IZ) (Saccharomyces cerevisiae): 24 mm

MIC (Candida albicans [1]): 4 µg/mL
SMILES: Cc1nc(-c2ccc(C(C)(C)C)cc2)sc1-c1ccnc(NCCCN)n1

MIC (Cryptococcus neoformans): 12.5 µg/mL (≈ 27.9 µM)
SMILES: Cc1nc(NC(=O)c2cc3ccccc3o2)c2c(C(F)(F)F)cc(-c3ccccc3)nc2n1

SMILES: Cc1cccc(-c2nc3ccccc3nc2N2CCN(Cc3ccccc3)CC2)c1
inhibition zone (IZ) (Candida albicans [7]): 14 mm

SMILES: COC(=O)C1C(C(=O)OC)C(C(=O)c2ccc([N+](=O)[O-])cc2)N2N=C(c3ccc(Cl)cc3)C=CC12 (configuration not stated)
inhibition zone (IZ) (Candida albicans [7]): 24 mm

SMILES: COC(=O)Nc1nc2ccccc2[nH]1 [CARBENDAZIM]
EC50 (Candida albicans [4]): 0.21 µg/mL (≈ 1.1 µM)

SMILES: CCOC(=O)C1CC(C(=O)c2ccccc2)N2N=C(c3ccc(Cl)cc3)C=CC12 (configuration not stated)
inhibition zone (IZ) (Candida albicans [7]): 24 mm

SMILES: O=C1CSC(c2ccccc2)N1c1nc(-c2ccccc2)cc(-c2ccccn2)n1 (configuration not stated)
inhibition zone (IZ) (Aspergillus flavus): 10 mm

SMILES: CCc1nnc2c(Nc3ccc(C4=NN(C(N)=S)C(c5ccccc5)C4)cc3)nc3ccccc3n12 (configuration not stated)
inhibition zone (IZ) [2]: 20 mm

SMILES: C[C@@H]1C[C@@H]([C@H](O)CC2CC(=O)NC(=O)C2)C(=O)[C@@H](C)C1 [CYCLOHEXIMIDE]
MIC (Candida albicans [6]): 3.12 µg/mL (≈ 11.1 µM)

MIC (Candida albicans [6]): 3.12 µg/mL (≈ 7.02 µM)
SMILES: Cc1ccc(S(=O)(=O)Nc2nc(/N=N/c3c(N)nn4c(C)cc(=O)[nH]c34)cs2)cc1

SMILES: Cc1nc(Oc2ccc(C(=O)Nc3ccc(F)cc3)cc2)cc(C(F)(F)F)n1
inhibition at 50 µg/mL (Botryosphaeria dothidea): 85.9%

SMILES: O=C(CSc1nc2sc3c(c2c(=O)n1-c1ccc(Cl)cc1)CCCC3)Nc1nc(-c2cccc(Br)c2)cs1
inhibition zone (IZ) (Candida albicans [8]): 18 mm

MIC (Candida albicans [6]): 50 µg/mL (≈ 113 µM)
SMILES: Cc1ccc(S(=O)(=O)Nc2nc(/N=N/c3c(N)nn4c(C)cc(C)nc34)cs2)cc1

MIC50 (Candida albicans [5]): 0.78 µg/mL (≈ 2.74 µM)
MIC (Pichia kudriavzevii): 0.78 µg/mL (≈ 2.74 µM)
MIC (Candida parapsilosis): 0.78 µg/mL (≈ 2.74 µM)
MIC (Nakaseomyces glabratus): 0.78 µg/mL (≈ 2.74 µM)
SMILES: Nc1nc2ccccc2nc1NC1CC(C(=O)O)=CC1=O (configuration not stated)
